Measurements published in paper PMC6595003, “Insights into real-time chemical processes in a calcium sensor protein-directed dynamic library” (Nature Communications, 2019).
Values joined by “and” are separate entries in the source; they are usually repeats but may differ in a detail not shown here. Equal values may be shown once.

Key:
dNCS-1 = target: T1, dNCS-1 (Drosophila melanogaster, UniProt Q9VWX8); test: Protein-directed DCL, HPLC-MS relative peak area with and without dNCS-1; conditions: for RPA, Blank DCL / RPA, Templated DCL: as fraction of total area; for RPA, Templated DCL: with dNCS-1; for RPA (%) with protein (templated DCL): relative peak area in presence of dNCS-1; for RPA (%) without protein (blank DCL): relative peak area, sum of all peak areas set to 100%; for RPA (%), Blank DCL: sheet Supplementary Figure 10; for RPA (%), Templated DCL: sheet Supplementary Figure 10, with dNCS-1
T1 construct: made in house; host or cells: E. coli
T1 sequence (Q9VWX8 1-187): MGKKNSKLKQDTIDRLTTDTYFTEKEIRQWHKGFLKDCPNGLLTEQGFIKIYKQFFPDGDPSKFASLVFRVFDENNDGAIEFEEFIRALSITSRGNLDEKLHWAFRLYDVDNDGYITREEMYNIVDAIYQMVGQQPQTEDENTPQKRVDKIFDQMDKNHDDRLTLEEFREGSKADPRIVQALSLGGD
Description: The reversibility of the DCL was evident, since an identical equilibrium distribution to that shown in Fig. 4a was obtained when two different starting points were employed. The observed degree of amplification was 3b > 3e ≥ 3d > 3a. The precise composition of the DCL (with and without dNCS-1), was assessed by measuring the relative peak area (RPA). Indeed, the normalized change of RPA was used to quantify the protein influence in the final outcome (Supplementary Figs. 9, 10 and Supplementary Tables 1, 2 and 3)[28]. […] Note that compounds 3a–3e can exist as E/Z isomers of the C = N bond. […].
Aldehyde 1 (1.2 μL, 50 mM, DMSO), the five acylhydrazides 2a–2e (5 × 3.6 μL, 50 mM, DMSO), p-anisidine (1 μL, 12 M, DMSO) and buffer 20 mM Tris, 0.5 M NaCl and 1 mM CaCl2, 1 mM DTT at pH 7.4 (750 μL) in 3.3 % DMSO. The mixture was stabilized in 5 h at 4 °C. HPLC analysis was performed.
Aldehyde 1 (1.2 μL, 50 mM, DMSO), the five acylhydrazides 2a–2e (5 × 3.6 μL, 50 mM, DMSO), p-anisidine (1 μL, 12 mM, DMSO) and dNCS-1 in buffer 20 mM Tris, 0.5 M NaCl and 1 mM CaCl2, 1 mM DTT at pH 7.4 (66.7 μM, 750 μL, 1 eq.). The experiment is in 3.3% DMSO. The mixture was stabilized for 5 h at 4 °C. Then, dNCS-1 was removed by ultrafiltration using an Amicon Ultra filter (0.5–10 KDa). HPLC analysis was performed and the traces were compared with the blank composition.
Supplementary Figure 9. Relative Peak Area of the DCL with and without dNCS1. Aldehyde
1 (1.2 µL, 50 mM), 2a-e (3.6 µL, 50 mM), catalyst (1 µL, 12 M), dNCS-1:1 [1:1], tris buffer (20
mM, pH 7.4), 1 mM CaCl2, 0.5 M NaCl, 1 mM DTT, T = 4 °C, 2% DM SO. Mean relative peak
area (RPA) of each acylhydrazone of the library in the absence (blank) and presence of dNCS-1.
Error bars indicate standard deviation (SD) over three experiments. The calculation is set by the
sum of all peak areas to 100% and assigning each peak its percentage. Source data are provided
R P A N o rm aliz ed V a riation
Supplementary Figure 10. RPA normalized of variation of DCL with and without dNCS1.
Aldehyde 1 (1.2 µL, 50 mM), 2a-e (3.6 µL, 50 mM), catalyst (1 µL, 12 M), dNCS-1:1 [1:1], tris
buffer (20 mM, pH 7.4), 1 mM CaCl2, 0.5 M NaCl, 1 mM DTT, T = 4 °C, 2% DM SO. Error
bars indicate SD over three experiments. Source data are provided as a Source Data file.

[1] = test system: Cortical neurons from E14 wild-type mice; test: Toxicity in primary cultured neurons (percentage of picnotic bodies); assay type: cell-based; conditions: 24 h
From the text: Mean ± SD from three independent experiments. The curves represent the least squares fitting of the experimental data to a 1:1 stoichiometry. To properly compare the different curves, intensities were normalized and represented. […] Input represents 1/10 cell lysates before IP. Quantifications of each lane from four experiments are shown below the blots. Bars represent percentage of NCS-1/ Ric8a binding (mean ± SD) normalized to DMSO. […] CNS + (green) for Pe > 4.47 × 10^−6 cm s^−1, CNS- (red) for compounds with Pe < 4.47 × 10^–6 cm s^−1. […] Mean ± SD from three independent experiments. […] Then, the percentage of picnotic bodies over the total nuclei was analyzed. Mean ± SD from three independent experiments. Paired two-tailed Student’s test ***P˂0.001; **P < 0.01; *P < 0.05. Source data are provided as a Source Data file. IP immunoprecipitation, WB western blot
Finally, cell toxicity in neurons was quantified as percentage of picnotic bodies for 3b (Fig. 6d).
Cortical neurons were obtained from E14 wt mice (C57BL6J). Mice were maintained in accordance to European law and following Hospital Ramón y Cajal´s animal guidelines. […] Three independent experiments counting cells from three different wells per concentration were performed. To analyzed cell death, neurons were fixed and stained with DAPI.

Row | RPA, Blank DCL (dNCS-1) | RPA, Templated DCL (dNCS-1) | RPA (%) with protein (templated DCL) (dNCS-1) | RPA (%) without protein (blank DCL) (dNCS-1) | RPA (%), Blank DCL (dNCS-1) [%] | RPA (%), Templated DCL (dNCS-1) [%] | SMILES | further results
1 | 0.2727 | 0.1875 | 18.8% and 18.7508% | 27.3% and 27.2702% | 27.3 | 18.8 | O=C(N/N=C/c1ccc([N+](=O)[O-])c(O)c1)c1ccco1 [3a] | 
2 | 0.1114 | 0.0839 | 8.4% and 8.39% | 11.1% and 11.1444% | 11.1 | 8.39 | O=C(NN=Cc1ccc([N+](=O)[O-])c(O)c1)C(O)c1ccccc1 (mixture of isomers) [3d] | 
3 | 0.1921 | 0.2944 | 29.4% and 29.4401% | 19.2% and 19.208% | 19.2 | 29.4 | O=C(Cc1c[nH]c2ccccc12)NN=Cc1ccc([N+](=O)[O-])c(O)c1 (mixture of isomers) [3b] | percentage of picnotic bodies, % exp 2 ([1]; 0.2 μM): 12%; percentage of picnotic bodies, % exp 3 ([1]; 0.2 μM): 10%; percentage of picnotic bodies, % exp.1 ([1]; 0.2 μM): 10.1%; percentage of picnotic bodies over total nuclei, average ([1]; 0.2 μM, DMSO 8.4): 10.7%; percentage of picnotic bodies, % exp 2 ([1]; 2 μM): 10%; percentage of picnotic bodies, % exp 3 ([1]; 2 μM): 10%; percentage of picnotic bodies, % exp.1 ([1]; 2 μM): 13.4%; percentage of picnotic bodies over total nuclei, average ([1]; 2 μM, DMSO 8.06667): 11.1333%; percentage of picnotic bodies, % exp 2 ([1]; 10 μM): 12.5%; percentage of picnotic bodies, % exp 3 ([1]; 10 μM): 15%; percentage of picnotic bodies, % exp.1 ([1]; 10 μM): 14.3%; percentage of picnotic bodies over total nuclei, average ([1]; 10 μM, DMSO 12.1667): 13.9333%; percentage of picnotic bodies, % exp 2 ([1]; 20 μM): 17.5%; percentage of picnotic bodies, % exp 3 ([1]; 20 μM): 22.6%; percentage of picnotic bodies, % exp.1 ([1]; 20 μM): 15.3%; percentage of picnotic bodies over total nuclei, average ([1]; 20 μM, DMSO 12): 18.4667%; cell toxicity in neurons compared with vehicle DMSO ([1]; 0.2, 2, 10, 20 μM): no significant differences
